Assay type in all cases: in vivo
The subject of experiment [1] is Conditioned Avoidance Response. In words: Mouse Conditioned Avoidance Response (C.A.R.). As to conditions: po, mouse, tested 1, 2, and 4 hours after administration; for ED50: read-out: C.A.R. (mouse) ED50. How it is done:
(§1) Results given in: mg/kg po/mouse mg/kg po/rat
(§2) Mouse and Rat Conditioned Avoidance Response: Mice and rats are trained to jump out of a pit onto a ledge to avoid shock when presented with a light and sound conditioned stimulus. The animals are tested 1, 2, and 4 hours after administration of the test compound. Three to 4 dose levels and groups of 4-8 animals/dose are used. The ED50 is the dose producing a block of the C.A.R. in 50% of the animals. Blocking of the C.A.R. at non-toxic doses appears to correlate with major tranquilizer activity in man.

For experiment [2], the system named is amphetamine hyperactivity. In words: Mouse Anti-Amphetamine Activity (A.A.). As to conditions: po, mouse, d-amphetamine sulfate 5 mg/kg sc 1 hour after compound, 60 minutes recording; for ED50: read-out: A.A. (mouse) ED50. The procedure: (§3) Results given in: mg/kg po/mouse
Mouse Anti-Amphetamine Activity: Groups of 5 mice are given d-amphetamine sulfate 5 mg/kg sc 1 hour after oral administration of graded doses of test compound. The mice are placed in photocell activity units immediately after amphetamine administration and locomotor activity is recorded for 60 minutes. The ED50 is calculated as the dose causing a 50% reduction in locomotor activity relative to the activity of the amphetamine-treated control mice. Amphetamine antagonism at non-toxic doses appears to correlate with major tranquilizer activity in man.

The next experiment relates to taming. Put plainly: Rhesus Monkey Taming Effects. The note with it: po, rhesus monkey; for minimal effective dose: Macaca mulatta, read-out: Taming (monkey) MED. How it is done:
Results given in: mg/kg po/monkey
Rhesus Monkey Taming Effects: Compounds are administered orally to groups of six rhesus monkeys. The behavior of the animals is then evaluated by observational means. Taming effects are determined by the ability of the observer to approach and touch the monkey. Compounds with major tranquilizer activity in man can produce a state of passive tameness in the rhesus monkey wherein it can be touched without provoking any of the threatening or aggressive behavior seen in the normal animal. The MED is the minimal oral dose at which some taming effect can be observed.

A further experiment relates to locomotor activity. Put plainly: Mouse Screen (decrease in locomotor activity). The note with it: po, mouse, lowest dose producing obvious decrease in locomotor activity; for minimal effective dose: read-out: Screen (mouse) MED.
From the text: as §3
Mouse Screen: The minimal effective dose (MED) is the lowest oral dose producing an obvious decrease in locomotor activity, using observational techniques. Groups of 3 mice are given decreasing oral doses at 0.5 log intervals (300, 100, 30 . . . etc.) until no behavioral effects are evident. Decrease of locomotor activity is indicative of general central nervous system depressant activity.

Experiment [3] concerns Conditioned Avoidance Response. Put plainly: Dog Conditioned Avoidance Response (C.A.R.). The note with it: po, dog, 1, 2, and 4 hours after administration; for ED50: Canis lupus familiaris, read-out: C.A.R. (dog) ED50. The procedure:
Results given in: mg/kg po/dog
Dog Conditioned Avoidance Response: Dogs are trained to raise a forelimb when presented with a conditioned stimulus (light) in order to avoid an electric shock. Blocks of 10 trials are given to groups of four dogs during a pretreatment period and at 1, 2, and 4 hours after oral administration of test compound. The ED50 values are calculated as the dose causing 50% of the animals to show five or more incorrect responses. Blocking of the C.A.R. at non-toxic doses appears to correlate with major tranquilizer activity in man.

Experiment [4] relates to approach-avoidance ("conflict") situation. In words: Rat Conflict (Approach-Avoidance) Test. As to conditions: for Conflict (rat) MED / minimal effective dose: po, reexposed after 1 or 2 hours, rat; for minimal effective dose: read-out: Conflict (rat) MED. The procedure: Results given in: mg/kg po/rat
Rat Conflict (Approach-Avoidance) Test: Food deprived rats are trained to pass from one compartment to an adjacent one to obtain food. The training consists of three exposures to the test situation on day one of the experiment. The rats are given limited (1-2 hr) free access to food in their home cages on day one and are then food deprived for at least 18 hours. On day two of the experiment, the rats are given a control exposure to the test situation followed by a second exposure after 1/2 to 1 hour in which they are shocked after crossing and eating. Groups of 6-8 rats are then dosed orally with solvent or test compound and then reexposed to the test situation after 1 or 2 hours.
This effect is dose-related (and the MED is the minimum dose at which this effect is obtained); rats dosed with solvent only consistently show a high level of fear as evidenced by decreased mobility and absence of feeding when placed in the test situation after receiving a shock.

Experiment [5] concerns Conditioned Avoidance Response. Put plainly: Rat Conditioned Avoidance Response (C.A.R.). As to conditions: po, rat, tested 1, 2, and 4 hours after administration. How it is done: as §1, §2

The values that follow come from patent publication US3959300A, “Novel indolobenzazepine derivatives, useful as tranquilizers” (priority 1974, dated 1976).

As usually defined, the ED50 is the midpoint of the dose-response relation.

In the case of “1,2,3,4,8,9-hexahydro-3-[(4-methylbicyclo[2.2.2]oct-1-yl)methyl]pyrido[4',3':2,3]indolo[1,7-ab][1]benzazepine hydrochloride [Example 15]”, the “C.A.R. (mouse) ED50” value in experiment [1] lay within 10 to 30 mg/kg. Besides, the “A.A. (mouse) ED50” value in experiment [2] was in the range of 3 to 10 mg/kg. Besides, in the experiment with taming, the “Taming (monkey) MED” value is recorded as > 10 mg/kg. Further, the “Screen (mouse) MED” value in the experiment with locomotor activity was in the range of 10 to 30 mg/kg.
With “1,2,3,4,8,9-hexahydro-3-[(4-methylbicyclo[2.2.2]oct-2-en-1-yl)methyl]pyrido[4', 3':2,3]indolo[1,7-ab][1]benzazepine hydrochloride [Example 16]”, the “C.A.R. (dog) ED50” value in experiment [3] was > 10 mg/kg. Moreover, the “Conflict (rat) MED” value in experiment [4] is 10 to 20 mg/kg. Further, the “C.A.R. (mouse) ED50” value in experiment [1] was 30 to 60 mg/kg. The “A.A. (mouse) ED50” value in experiment [2] turned out to be 60 mg/kg. Further, the “Taming (monkey) MED” value in the experiment on taming is on record as 20 mg/kg. Further, in experiment [5], the “C.A.R. (rat) ED50” value was 30 mg/kg. Moreover, the “Screen (mouse) MED” value in the experiment with locomotor activity is 100 to 300 mg/kg.
Take “1,2,3,4,8,9-hexahydro-3-[(trans-2-methylcyclopropyl)methyl]pyrido[4',3':2,3]indolo[1,7-ab][1]benzazepine hydrochloride [No. 4]”: the “Conflict (rat) MED” value in experiment [4] was > 40 mg/kg. Further, the “C.A.R. (mouse) ED50” value in experiment [1] is 20 mg/kg. For the same compound, in experiment [2], the “A.A. (mouse) ED50” value was determined as 6 mg/kg. The “Taming (monkey) MED” value in the experiment with taming lay in the range of 3 to 10 mg/kg. The “Screen (mouse) MED” value in the experiment on locomotor activity lay within 10 to 30 mg/kg.
On to “1,2,3,4,8,9-hexahydropyrido[4', 3':2,3] indolo[1,7-ab][1]benzazepine [Example 1]”, for which the “Conflict (rat) MED” value in experiment [4] is reported as > 40 mg/kg. Further, the “C.A.R. (mouse) ED50” value in experiment [1] is recorded as > 40 mg/kg. Besides, the “A.A. (mouse) ED50” value in experiment [2] stood at 10 mg/kg. The “Taming (monkey) MED” value in the experiment with taming fell in the range of 20 to 30 mg/kg. Also, in experiment [5], the “C.A.R. (rat) ED50” value is > 40 mg/kg. In the experiment on locomotor activity, the “Screen (mouse) MED” value lay within 10 to 30 mg/kg.
Consider “3-(1-adamantylmethyl)-1,2,3,4,8,9-hexahydropyrido[4',3':2,3]indolo[1,7-ab][1]benzazepine hydrochloride [No. 11]”, for which the “Conflict (rat) MED” value in experiment [4] is reported as > 40 mg/kg. Besides, the “C.A.R. (mouse) ED50” value in experiment [1] fell in the range of 1 to 3 mg/kg. For the same compound, the “A.A. (mouse) ED50” value in experiment [2] worked out at 1 mg/kg. For the same compound, the “Taming (monkey) MED” value in the experiment on taming lay within 1 to 3 mg/kg. For the same compound, in experiment [5], the “C.A.R. (rat) ED50” value is 6 mg/kg. Also, the “Screen (mouse) MED” value in the experiment with locomotor activity was 3 to 10 mg/kg.
Take “3-(1-cyclopropylethyl)-1,2,3,4,8,9-hexahydropyrido[4',3':2,3]indolo[1,7-ab][1]benzazepine hydrochloride [Example 20]”: the “Screen (mouse) MED” value in the experiment with locomotor activity lay within 30 to 100 mg/kg.
Take “3-(2-adamantylmethyl)-1,2,3,4,8,9-hexahydropyrido[4',3':2,3]indolo[1,7-ab][1]benzazepine hydrochloride [Example 11]”: the “C.A.R. (mouse) ED50” value in experiment [1] is recorded as 30 mg/kg. The “A.A. (mouse) ED50” value in experiment [2] is listed as > 100 mg/kg. For the same compound, the “C.A.R. (rat) ED50” value in experiment [5] is recorded as > 40 mg/kg. Moreover, in the experiment on locomotor activity, the “Screen (mouse) MED” value was in the range of 100 to 300 mg/kg.
With “3-(2-butynyl)-1,2,3,4,8,9-hexahydropyrido[4',3':2,3]indolo[1,7-ab][1]benzazepine hydrochloride [No. 20]”, the “C.A.R. (dog) ED50” value in experiment [3] was > 40 mg/kg. Also, in experiment [4], the “Conflict (rat) MED” value is recorded as > 40 mg/kg. The “C.A.R. (mouse) ED50” value in experiment [1] is 10 to 30 mg/kg. In experiment [2], the “A.A. (mouse) ED50” value is 6 mg/kg. Also, the “Taming (monkey) MED” value in the experiment on taming lay in the range of 1 to 3 mg/kg. Also, the “Screen (mouse) MED” value in the experiment with locomotor activity was in the range of 10 to 30 mg/kg.
On to “3-(exo-7-norcarylmethyl)-1,2,3,4,8,9-hexahydropyrido[4',3':2,3]indolo[1,7- ab][1]benzazepine hydrochloride [No. 10]”, for which the “C.A.R. (mouse) ED50” value in experiment [1] was in the range of 10 to 30 mg/kg. In addition, the “A.A. (mouse) ED50” value in experiment [2] is 3 to 10 mg/kg. The “Taming (monkey) MED” value in the experiment with taming is reported as 10 mg/kg. Moreover, the “Screen (mouse) MED” value in the experiment on locomotor activity fell in the range of 10 to 30 mg/kg.
Regarding “3-[(2,3-dimethyl-2-cyclopropen-1-yl)methyl]-1,2,3,4,8,9-hexahydropyrido[4',3':2,3]indolo[1,7-ab][1]benzazepine hydrochloride [No. 12]”, the “Screen (mouse) MED” value with locomotor activity was 10 to 30 mg/kg.
Take “3-[(3-cyclohexen-1-yl)methyl]-1,2,3,4,8,9-hexahydropyrido[4',3':2,3]indolo[1,7-ab][1]benzazepine hydrochloride [No. 9]”: the “A.A. (mouse) ED50” value in experiment [2] came to 5 mg/kg. For the same compound, the “Screen (mouse) MED” value with locomotor activity fell in the range of 3 to 10 mg/kg.
Consider “3-[(cis,cis-2,3-dimethylcyclopropyl)methyl]-1,2,3,4,8,9-hexahydropyrido[4',3':2,3]indolo[1,7-ab][1]benzazepine hydrochloride [No. 14]”, for which the “C.A.R. (mouse) ED50” value in experiment [1] was determined as 20 mg/kg. Further, the “A.A. (mouse) ED50” value in experiment [2] stood at 20 mg/kg. In the experiment with taming, the “Taming (monkey) MED” value is reported as > 20 mg/kg. In addition, the “Screen (mouse) MED” value in the experiment with locomotor activity was in the range of 10 to 30 mg/kg.
Turning to “3-[cis-1,6-dimethyl-endo-3-norcaren-7-yl)methyl]-1,2,3,4,8,9-hexahydropyrido[4',3':2,3]indolo[1,7-ab][1]benzazepine [No. 13]”, in the experiment with locomotor activity, the “Screen (mouse) MED” value was 1 to 3 mg/kg.
Take “3-isobutyl-1,2,3,4,8,9-hexahydropyrido-[4', 3':2,3]indolo[1,7-ab ][1]benzazepine hydrochloride [No. 1, reference compound]”: the “Conflict (rat) MED” value in experiment [4] was > 40 mg/kg. Also, in experiment [2], the “A.A. (mouse) ED50” value was > 100 mg/kg. For the same compound, the “Taming (monkey) MED” value with taming is on record as > 20 mg/kg. Besides, in experiment [5], the “C.A.R. (rat) ED50” value is > 40 mg/kg. Further, the “Screen (mouse) MED” value with locomotor activity lay within 100 to 300 mg/kg.
For `CC1(CN2CCc3c(c4cccc5c4n3-c3ccccc3CC5)C2)CC1.Cl` [No. 5, 1,2,3,4,8,9-hexahydro-3-[(1-methylcyclopropyl)methyl]pyrido[4',3':2,3]indolo[1,7-ab][1]benzazepine hydrochloride], the ED50 fell in the range of 10 to 20 mg/kg in experiment [3], 10 to 30 mg/kg in experiment [1] and 3 to 10 mg/kg in experiment [2]. Besides, the minimal effective dose in experiment [4] was in the range of 10 to 20 mg/kg; in the experiment with taming, 10 to 30 mg/kg; with locomotor activity it was 10 to 30 mg/kg.
As for `Cl.c1ccc2c(c1)CCc1cccc3c4c(n-2c13)CCN(CC1CCC1)C4` [No. 6, 3-(cyclobutylmethyl)-1,2,3,4,8,9-hexahydropyrido[4',3':2,3]indolo[1,7-ab][1]benzazepine hydrochloride], the ED50 in experiment [3] worked out at 20 mg/kg; in experiment [1], 6 mg/kg; in experiment [2], 20 mg/kg; in experiment [5] (read-out: C.A.R. (rat) ED50) it was 4 mg/kg. The minimal effective dose is > 40 mg/kg in experiment [4], 1 to 3 mg/kg in the experiment on taming and 10 to 30 mg/kg with locomotor activity.
`C#CCN1CCc2c(c3cccc4c3n2-c2ccccc2CC4)C1.Cl` [No. 19, 1,2,3,4,8,9-hexahydro-3-(2-propynyl)pyrido[4',3':2,3]indolo[1,7-ab][1]benzazepine hydrochloride]: the results for the median effective dose (ED50) in experiment [1] and in experiment [2] were 20 mg/kg and 30 to 100 mg/kg, respectively. For the same compound, in the experiment with locomotor activity, the minimal effective dose was in the range of 10 to 30 mg/kg.
Turning to `CCCC(C)(COC(N)=O)COC(N)=O` [meprobamate, reference compound], in experiment [4] (rats cross to obtain food despite earlier shock, dose-related), the “decreased fear in the test animals, in words” value was “apparent decreased fear in the test animals”.
